Each structure is given as a SMILES string. pIC50: −log10 of the molar value. “And” between values parts separate entries of the source, which are not always exact repeats. Identical values can stand only once. Bounds are passed on as bounds.

For this assay, the system named is LG0567-F671-PDC complex spheroids viability. In words: Anticancer human tumor LG0567-F671-PDC patient-derived lung adenocarcinoma cell line growth inhibition [RAS]. The following applies: for viability, T/C: stronger effect = lower value. A digest of the protocol:
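Tumour cells grown as complex spheroids with HUVEC endothelial cells and mesenchymal stem cells, treated with RAS pathway inhibitor combinations. Each agent spans half-log steps from near clinical Cmax, or 10 microM where Cmax is unknown.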
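Note: spheroids exposed to compound for seven days before readout.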
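Throughout, for pIC50: luminescence signal used as a proxy for viable cells.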

For orientation: pIC50 means the IC50 on a negative log10 scale, so that one unit is a factor of ten. The term viability, T/C denotes the ratio of treated to control. As for `CC1(O)CCCC1n1c(=O)c(C(F)F)cc2cnc(NC3CCN(S(C)(=O)=O)CC3)nc21` (stereo not given) + C=CC(=O)N1CCN(c2nc(OCC3CCCN3C)nc3c(F)c(-c4nc(N)cc(C)c4C(F)(F)F)c(Cl)cc23)C(C)C1, the negative logarithm of the IC50 (pIC50) is, setting by setting: (curve of first compound, second compound 0.00316 µM) above 7.50; (curve of first compound, second compound 0.01 µM) above 7.50; (curve of first compound, second compound 0.0316 µM) above 7.50; (curve of first compound, second compound 0.1 µM) above 7.50; (curve of first compound, second compound 0.316 µM) above 7.50; (curve of first compound, second compound 1 µM) above 7.50. Besides, the viability, T/C (second compound 0.00316 µM, first compound 0.0316 µM) was 20.1%; the viability, T/C (second compound 0.00316 µM, first compound 0.1 µM) is 16.5%; the viability, T/C (second compound 0.00316 µM, first compound 0.316 µM) is 20.5%; the viability, T/C (second compound 0.00316 µM, first compound 1 µM) was 23.8%; the viability, T/C (second compound 0.00316 µM, first compound 3.16 µM) was 20.7%; the viability, T/C (second compound 0.00316 µM, first compound 10 µM) is 14%. For the same molecule, the viability, T/C by setting is: (second compound 0.01 µM, first compound 0.0316 µM) 16.5%; (second compound 0.01 µM, first compound 0.1 µM) 15%; (second compound 0.01 µM, first compound 0.316 µM) 16.2%; (second compound 0.01 µM, first compound 1 µM) 19.1%; (second compound 0.01 µM, first compound 3.16 µM) 20.6%; (second compound 0.01 µM, first compound 10 µM) 15.1%. Further, the viability, T/C by setting is: (second compound 0.0316 µM, first compound 0.0316 µM) 13.8%; (second compound 0.0316 µM, first compound 0.1 µM) 12.9%; (second compound 0.0316 µM, first compound 0.316 µM) 17.8%; (second compound 0.0316 µM, first compound 1 µM) 18.3%; (second compound 0.0316 µM, first compound 3.16 µM) 17.6%; (second compound 0.0316 µM, first compound 10 µM) 13.4%. Further, the viability, T/C is 12.7% (second compound 0.1 µM, first compound 0.0316 µM); 13.8% (second compound 0.1 µM, first compound 0.1 µM); 15% (second compound 0.1 µM, first compound 0.316 µM); 17.8% (second compound 0.1 µM, first compound 1 µM); 17.4% (second compound 0.1 µM, first compound 3.16 µM); 13.3% (second compound 0.1 µM, first compound 10 µM). Further, the viability, T/C reads like this: (second compound 0.316 µM, first compound 0.0316 µM) 14.5%; (second compound 0.316 µM, first compound 0.1 µM) 15%; (second compound 0.316 µM, first compound 0.316 µM) 16.6%; (second compound 0.316 µM, first compound 1 µM) 17.1%; (second compound 0.316 µM, first compound 3.16 µM) 15.8%; (second compound 0.316 µM, first compound 10 µM) 13.1%. Further, the viability, T/C is, setting by setting: (second compound 1 µM, first compound 0.0316 µM) 16.2%; (second compound 1 µM, first compound 0.1 µM) 15.3%; (second compound 1 µM, first compound 0.316 µM) 17.7%; (second compound 1 µM, first compound 1 µM) 19.8%; (second compound 1 µM, first compound 3.16 µM) 19.6%; (second compound 1 µM, first compound 10 µM) 12.4%.

Take `Nc1ccn(C2OC(CO)C(O)C2(F)F)c(=O)n1` (stereo not given) + CCn1c(-c2cccnc2C(C)OC)c2c3cc(ccc31)N1CCOC(CC(NC(=O)C(C(C)C)N(C)C(=O)C3(F)CCN(C(=O)C#CC(C)(C)N(C)C)CC3)C(=O)N3CCCC(N3)C(=O)OCC(C)(C)C2)C1: the pIC50 is above 8.50 (curve of first compound, second compound 0.000949 µM); above 8.50 (curve of first compound, second compound 0.003 µM); above 8.50 (curve of first compound, second compound 0.00949 µM); above 8.50 (curve of first compound, second compound 0.03 µM); above 8.50 (curve of first compound, second compound 0.0949 µM); above 8.50 (curve of first compound, second compound 0.3 µM). Also, the viability, T/C (second compound 0.000949 µM, first compound 0.00316 µM) was 15.8%; the viability, T/C (second compound 0.000949 µM, first compound 0.01 µM) is 15.7%; the viability, T/C (second compound 0.000949 µM, first compound 0.0316 µM) is 14.1%; the viability, T/C (second compound 0.000949 µM, first compound 0.1 µM) is 14.4%; the viability, T/C (second compound 0.000949 µM, first compound 0.316 µM) is 15.3%; the viability, T/C (second compound 0.000949 µM, first compound 1 µM) is 13.8%. Further, the viability, T/C was 15.6% (second compound 0.003 µM, first compound 0.00316 µM); 15.7% (second compound 0.003 µM, first compound 0.01 µM); 13.5% (second compound 0.003 µM, first compound 0.0316 µM); 14.8% (second compound 0.003 µM, first compound 0.1 µM); 15.6% (second compound 0.003 µM, first compound 0.316 µM); 11.7% (second compound 0.003 µM, first compound 1 µM). The viability, T/C (second compound 0.00949 µM, first compound 0.00316 µM) is 12.5%; the viability, T/C (second compound 0.00949 µM, first compound 0.01 µM) is 14.3%; the viability, T/C (second compound 0.00949 µM, first compound 0.0316 µM) was 13.6%; the viability, T/C (second compound 0.00949 µM, first compound 0.1 µM) was 13.2%; the viability, T/C (second compound 0.00949 µM, first compound 0.316 µM) was 14.1%; the viability, T/C (second compound 0.00949 µM, first compound 1 µM) was 14.1%. The viability, T/C was 12.3% (second compound 0.03 µM, first compound 0.00316 µM); 13.7% (second compound 0.03 µM, first compound 0.01 µM); 13.8% (second compound 0.03 µM, first compound 0.0316 µM); 15% (second compound 0.03 µM, first compound 0.1 µM); 14% (second compound 0.03 µM, first compound 0.316 µM); 13% (second compound 0.03 µM, first compound 1 µM). For the same molecule, the viability, T/C is, setting by setting: (second compound 0.0949 µM, first compound 0.00316 µM) 11.1%; (second compound 0.0949 µM, first compound 0.01 µM) 10.2%; (second compound 0.0949 µM, first compound 0.0316 µM) 11.4%; (second compound 0.0949 µM, first compound 0.1 µM) 10.1%; (second compound 0.0949 µM, first compound 0.316 µM) 12.1%; (second compound 0.0949 µM, first compound 1 µM) 11.6%. The viability, T/C runs as follows: (second compound 0.3 µM, first compound 0.00316 µM) 10.6%; (second compound 0.3 µM, first compound 0.01 µM) 11.3%; (second compound 0.3 µM, first compound 0.0316 µM) 9.37%; (second compound 0.3 µM, first compound 0.1 µM) 9.44%; (second compound 0.3 µM, first compound 0.316 µM) 9.59%; (second compound 0.3 µM, first compound 1 µM) 10%.

`Nc1ccn(C2OC(CO)C(O)C2(F)F)c(=O)n1` (stereo not given): the viability, T/C runs as follows: (compound 0.00316 µM) 93.3% [middle of 4 runs]; (compound 0.01 µM) 81% [middle of 4 runs]; (compound 0.0316 µM) 79.1% [middle of 4 runs]; (compound 0.1 µM) 71.7% [middle of 4 runs]; (compound 0.316 µM) 69.5% [middle of 4 runs]; (compound 1 µM) 61.7% [middle of 4 runs]. For the same molecule, the pIC50 (curve of compound) was below 6.00.

The IC50 is the concentration at which inhibition is half-maximal. For `CCc1c2c(nc3ccc(O)cc13)-c1cc3c(c(=O)n1C2)COC(=O)[C@]3(O)CC`, the viability, T/C reads like this: (compound 0.000949 µM) 93.3% [middle of 4 runs]; (compound 0.003 µM) 79% [middle of 4 runs]; (compound 0.00949 µM) 65.1% [middle of 4 runs]; (compound 0.03 µM) 48.5% [middle of 4 runs]; (compound 0.0949 µM) 27.1% [middle of 4 runs]; (compound 0.3 µM) 7.59% [middle of 4 runs]. Moreover, for the setting “curve of compound”, the half-inhibitory concentration (IC50) was 26.9 nM [middle of 4 runs].

Consider `C[C@@H](NC(=O)c1ncnc(N)c1Cl)c1ncc(C(=O)Nc2cc(C(F)(F)F)c(Cl)cn2)s1`, for which the viability, T/C runs as follows: (compound 0.0316 µM) 115% [middle of 4 runs]; (compound 0.1 µM) 120% (2×) and 125% (2×); (compound 0.316 µM) 129% and 122% (2×) and 128%; (compound 1 µM) 121% [middle of 4 runs]; (compound 3.16 µM) 102% [middle of 4 runs]; (compound 10 µM) 79% [middle of 4 runs]. In addition, where the note is “curve of compound”, the negative logarithm of the IC50 (pIC50) is below 5.00.

The values are drawn from PubChem BioAssay AID2060889 (Molecular Pharmacology Branch, DTP, NCI, 2025).
